# Data from patent publication US11225470B2, “Tetrazolinone compounds and its use as pest control agents” (SUMITOMO CHEMICAL COMPANY, LIMITED, priority 2016, dated 2022).
# System: tomato early blight fungi (Alternaria solani; QoI resistant strain, cytochrome b phenylalanine 129 mutated to leucine)
# Format: in vivo
# Details: 200 ppm foliar spray, inoculation after 1 day; tomato cv PATIO
smiles,measurement,value
CCC(=NN=C(C)c1ccc2ccccc2c1)OCc1c(C)cccc1-n1nnn(C)c1=O [cf1],lesion area compared to the lesion area in an untreated tomato,≥ 70%
